Reference: ChEMBL document CHEMBL5634091, “Cantharidin analogue alleviates dextran sulfate sodium-induced colitis in mice by inhibiting the activation of NF-κB signaling” (Eur J Med Chem, 2023)
Calls of active or inactive are those of the source. The rule behind the calls is not given here.

Key:
[1] = Inhibition of TNF-alpha induced NF-kappaB activation in HEK293T cells preincubated for 4 hrs and followed by TNF-alpha stimulation and measured after 4 hrs by dual-luciferase reporter assay; assay type: cell-based; details: Homo sapiens, HEK-293T
DLD-1 [2] = experiment: Effect on IKK protein expression in TNF-alpha stimulated human DLD-1 cells at 12.5 to 50 uM preincubated for 4 hrs and followed TNF-alpha stimulation and measured after 10 mins by Western blot analysis; assay type: functional, cell-based; details: dose 12.5-50 µM, time 250.0 min
Mus musculus [3] = experiment: Anti-inflammatory activity in po dosed C57BL/6 mouse model of DSS-induced acute ulcerative colitis assessed as reduction in TNFalpha mRNA expression in colon administered once a day for 7 days by RT-PCR analysis; assay type: functional, organism-based; details: dose 100-300 mg/kg, time 7.0 day
[4] = Cytotoxicity against LPS/IFNgamma induced mouse RAW264.7 cells assessed as inhibition of cell growth preincubated for 24 hrs followed by LPS/IFNgamma stimulation and measured after 24 hrs by SRB assay; assay type: toxicity, cell-based; details: RAW264.7 cells induced with LPS/IFNgamma, time 48 hrs
DLD-1 [5] = experiment: Activation of MAPK signaling pathway in TNF-alpha stimulated human DLD-1 cells assessed as increase in phospho-JNK protein expression at 50 uM preincubated for 4 hrs and followed TNF-alpha stimulation and measured after 10 mins by Western blot analysis; assay type: cell-based; details: filed as activator, time 250.0 min
[6] = Toxicity in Kunming mouse assessed as number of mouse survived at 667 mg/kg, po measured for 15 days; assay type: organism-based; details: in vivo, 360 h, time 15 day
RAW264.7 = experiment: Antiinflammatory activity in mouse RAW264.7 cells assessed as inhibition in LPS/IFNgamma-induced NO production preincubated for 2 hrs followed by LPS/IFNgamma stimulation and measured after 24 hrs by Griess reagent based assay; assay type: functional, cell-based
[7] = Toxicity in C57BL/6 mouse model of DSS-induced acute ulcerative colitis assessed as effect on lung tissue at 100 to 300 mg/kg, po administered once a day for 7 days by H and E staining based analysis; assay type: organism-based; details: in vivo, 168 h, dose 100-300 mg/kg, time 7 day
Mus musculus [8] = experiment: Anti-inflammatory activity in C57BL/6 mouse model of DSS-induced acute ulcerative colitis assessed as reversal of DSS-induced weight loss at 100 to 300 mg/kg, po administered once a day for 7 days; assay type: functional, organism-based; details: dose 100-300 mg/kg, time 7.0 day
DLD-1 [9] = experiment: Upregulation of JNK protein expression in TNF-alpha stimulated human DLD-1 cells at 50 uM preincubated for 4 hrs and followed TNF-alpha stimulation and measured after 10 mins by Western blot analysis; assay type: functional, cell-based; details: time 250.0 min
DLD-1 [10] = experiment: Inhibition of TNF-alpha induced MAPK signaling pathway activation in human DLD-1 cells assessed as decrease in phospho-ERK protein expression at 12.5 uM preincubated for 4 hrs and followed TNF-alpha stimulation and measured after 10 mins by Western blot analysis; assay type: cell-based; details: time 250.0 min
HCT-116 [11] = experiment: Cytotoxicity against human HCT-116 cells assessed as induction of stress response at 50 uM; assay type: toxicity, cell-based; details: hct-116, 50 µM
HCT-116 [12] = experiment: Inhibition of TNF-alpha-induced NF-kappaB nuclear translocation in human HCT-116 cells preincubated for 4 hrs followed by TNF-alpha stimulation and measured after 30 mins by immunofluorescence staining based laser scanning confocal microscopic analysis; assay type: cell-based; details: dose 25-50 µM, time 4.5 hrs
[13] = Toxicity in Kunming mouse assessed as number of mouse survived at 1111 mg/kg, po measured for 15 days; assay type: organism-based; details: in vivo, 360 h, time 15 day
[14] = Cytotoxicity against human HCT-116 cells assessed as inhibition in cell proliferation; assay type: toxicity, cell-based
HCT-116 [15] = experiment: Effect on NF-kappaB p65 protein expression in TNF-alpha stimulated human HCT-116 cells at 12.5 to 50 uM preincubated for 4 hrs and followed TNF-alpha stimulation and measured after 10 mins by Western blot analysis; assay type: functional, cell-based; details: dose 12.5-50 µM, time 250.0 min
DLD-1 [16] = experiment: Inhibition of TNF-alpha induced NF-kB activation in human DLD-1 cells assessed as decrease in phosphorylated IKK protein expression preincubated for 4 hrs and followed TNF-alpha stimulation and measured after 10 mins by Western blot analysis; assay type: cell-based; details: dose 12.5-50 µM, time 250.0 min
Mus musculus [17] = experiment: Anti-inflammatory activity in C57BL/6 mouse model of DSS-induced acute ulcerative colitis assessed as reduction in submucosal edema at 100 to 300 mg/kg, po administered once a day for 7 days by H and E staining based analysis; assay type: functional, organism-based; details: dose 100-300 mg/kg, time 7.0 day

COC(=O)C1=C(C(=O)OC)C2OC1CC2C#Cc1ccc(C)cc1 (stereo not drawn)
IC50 [1]: 16.1 µM
Activity (DLD-1 [2]): inactive
Activity (Mus musculus [3]): Dose-Dependent Effect
CC50 at 24 h [4]: 12.2 µM
Activity (DLD-1 [5]): Active
Activity [6]: 0
IC50 (RAW264.7): 2.66 µM
Activity [7]: Non-Toxic
Activity (Mus musculus [8]): Active
Activity (DLD-1 [9]): Active
inhibition (DLD-1 [10]): Active
Activity (HCT-116 [11]): Toxic
inhibition (HCT-116 [12]): Dose-Dependent Effect
Activity [13]: 0
IC50 [14]: 14.3 µM
Activity (HCT-116 [15]): inactive
inhibition (DLD-1 [16]): Dose-Dependent Effect
Activity (Mus musculus [17]): Active
